For this test, the system named is H1 human embryonic stem cells. The experiment in a line: Definitive endoderm formation with GDF family members, SOX17 and cell number (Example 13). In kind it is cell-based. Particulars: for SOX17 expression, reagent alone: 20 ng/ml Wnt3a or 2.5 μM compound alone, four days; for SOX17 induction in combination with GDF-8: 2.5 μM compound with 100 ng/ml GDF-8, exceeding activin A/Wnt3a positive control. As for the experimental part: Stock cultures of human embryonic stem cells (H1 human embryonic stem cell line) were maintained in an undifferentiated, pluripotent state on reduced growth factor […]™ (BD Biosciences; Cat #356231)-coated dishes in MEF conditioned medium with passage on average every four days. Passage was performed by exposing cell cultures to a solution of 1 mg/ml dispase (Invitrogen; Cat #17105-041) for 5 to 7 minutes at 37° C. followed by rinsing the monolayer with MEF conditioned culture medium and gentle scraping to recover cell clusters. Clusters were centrifuged at low speed to collect a cell pellet and remove residual dispase. Cell clusters were split at a 1:3 or 1:4 ratio for routine maintenance culture or a 1:1 ratio for immediate assay. All human ES cell lines were maintained at passage numbers less than 50 and routinely evaluated for normal karyotype and absence of mycoplasma.
Cell clusters were evenly resuspended in MEF conditioned medium supplemented with 8 ng/ml bFGF and seeded onto reduced growth factor […]™-coated 96-well Packard VIEWPLATES (PerkinElmer; Cat #6005182) in volumes of 0.1 ml/well. Daily feeding was conducted by aspirating spent culture medium from each well and replacing with an equal volume of fresh medium. Plates were maintained at 37° C., 5% CO2 throughout the duration of assay.
The assay was initiated by aspirating the culture medium from each well and adding back aliquots (100 μl) of test medium. Test conditions were performed in triplicate over a total four-day assay period, feeding on day 1 and day 3 by aspirating and replacing the medium from each well with fresh test medium. Various members of the GDF family of proteins were obtained for testing as follows: GDF-3 (PeproTech; Cat #120-22); GDF-5 (DePuy Orthopaedics, Inc., a Johnson & Johnson company); GDF-8 (R&D Systems; Cat #788-G8); GDF-10 (R&D Systems; Cat #1543-BP); GDF11 (PeproTech; Cat #120-11); GDF-15 (R&D Systems; Cat #957-GD). On the first day of assay, all wells received an aliquot (80 μl) of basal medium DMEM:F12 medium (Invitrogen; Cat #11330-032) supplemented with 0.5% fetal bovine serum (Hyclone; Cat #SH30070.03). A series of five different control or experimental test samples was created to evaluate activin A or various GDFs in combination with Wnt3a or Compound 34 or Compound 56. These test samples were added in 20 μl aliquots (5× concentrated) to appropriately matched assay wells to yield a final assay volume of 100 μl in each well at the final assay conditions indicated. In the first set of control samples, the following conditions were tested: 1) no additive (i.e. no supplementary growth factor or small molecule); 2) 100 ng/ml activin A (PeproTech; Cat #120-14) in combination with 20 ng/ml Wnt3a (R&D Systems; Cat #1324-WN/CF); 3) 20 ng/ml Wnt3a alone; 4) Compound 34 alone (2.5 μM) without any growth factor or small molecule; 5) Compound 56 alone (2.5 μM) without any growth factor or small molecule. In the second set of test samples, the following conditions were tested in combination with 100 ng/ml GDF3: 1) no additive (i.e. GDF-3 alone); 2) 20 ng/ml Wnt3a; 3) 20 ng/ml Wnt3a with Compound 34 (2.5 μM); 4) Compound 34 (2.5 μM); 5) Compound 56 (2.5 μM); and 6) 20 ng/ml Wnt3a with Compound 56 (2.5 μM). In the third set of test samples, each of the six conditions was combined with 100 ng/ml GDF-5. In the fourth set of test samples, each of the six conditions was combined with 100 ng/ml GDF-8. In the fifth set of test samples, each of the six conditions was combined with 100 ng/ml GDF-10. In the sixth set of test samples, each of the six conditions was combined with 100 ng/ml GDF-11. In the seventh set of test samples, each of the six conditions was combined with 100 ng/ml GDF-15. On the third day of assay, all wells for all test samples, received 100 ng/ml Activin A or 100 ng/ml respective GDF growth factor, without Wnt3a or Compound 34 or Compound 56, diluted into DMEM:F12 medium supplemented with 2% FBS. […]

`O=C1CCN2CCN(CC2)Cc2cc(Cl)cc(c2)Nc2ncnc(n2)-c2cncc(c2)CCCN1` [Compound 34, 5-Chloro-1,8,10,12,16,22,26,32-octaazapentacyclo[24.2.2.1˜3.7˜0.1˜9,13˜0.1˜14.18˜]tritriaconta-3(33), 4,6,9(32), 10,12,14(31), 15,17-nonaen-23-one]: the “SOX17 expression, reagent alone” value is on record as “failed to induce SOX17 expression” and the “SOX17 induction in combination with GDF-8” value was “robust induction of SOX17”.

Take `Cc1c[nH]c(-c2cnc(NCCNc3ccc(C#N)cn3)nc2-c2ccc(Cl)cc2Cl)n1` [Compound 56, 6-[(2-{[4-(2,4-Dichlorophenyl)-5-(4-methyl-1H-imidazol-2-yl)pyrimidin-2-yl]amino}ethyl)amino]pyridine-3-carbonitrile]: the “SOX17 expression, reagent alone” value is given as “failed to induce SOX17 expression” and the “SOX17 induction in combination with GDF-8” value is recorded as “robust induction of SOX17”.

The values above are taken from patent publication US9593305B2, “Differentiation of pluripotent stem cells” (Janssen Biotech, Inc., priority 2008, dated 2017).
